# According to patent US20230416329A1, “A PEPTIDE WITH DISULFIDE BONDS AND INHIBITORY ACTIVITY AGAINST SERINE PROTEASES, DERIVED HYBRID PEPTIDES THEREOF, AND USES THEREOF” (INSTITUTE OF MATERIA MEDICA , CHINESE ACADEMY OF MEDICAL …, priority 2020, published 2023):
# Bridge positions count the residues as written; N and C are the ends. Ends that are not written are not given here. Peptide text beside a SMILES is read from it.
# What was measured:
# [1] = test system: rats; experiment: Hypo-calcifying effect of salmon calcitonin and analogues, blood calcium concentration in rats; type: in vivo, rat; conditions: sCat and CalM subcutaneous, capsule form Cal BT 1 umol/kg p.o., 0-24 h
# Method: FIG. 24. The blood calcium concentration percentage-time curve of rat.
# (§1) Rats were fasted for 12 hours with water ad libitum before the experiment. The animals were randomly divided into 4 groups (5 animals in each group). The normal control group was injected with normal saline solution, and the commercially available salmon Calcitonin (sCat) and synthetic Calcitonin analog (CalM) were injected subcutaneously. The capsule form Cal BT (1 umol/kg, p.o.) was administered by gavage.
# Take blood from the inner canthus of rats at the predetermined time points: 0, 2, 3, 4, 6, 8, 12, and 24 h later, with at least 0.2 mL of blood taken each time. The blood sample was placed at 4° C. for stratification and centrifuged at 3000 rpm for 10 minutes. The serum was separated and measured for serum calcium ion concentration.
# The serum calcium ion concentration at 0 h was considered as baseline, the blood calcium concentration at other time was converted into the percentage ratio of baseline. The blood calcium curve was drawn with time as the X axis and the percentage of blood calcium concentration (%) as the Y axis.
# [2] = molecular target: chymotrypsin (Bos taurus, UniProt P00766); experiment: in vitro
# Method in brief: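 Peptide and 0.05 μg/μL chymotrypsin were preincubated at 37 °C for 5 min, then mixed. Aliquots taken from 1.5 up to 60.0 min were quenched with 10% TFA, and remaining peptide was measured as RP-HPLC peak area.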
# [3] = rat, in vivo
# Method: as §1
# [4] = molecular target: T1, trypsin (Bos taurus, UniProt P00760); experiment: in vitro; conditions: for Remaining peak area (%)/Trypsin: 0 h
# T1 sequence (P00760 24-246): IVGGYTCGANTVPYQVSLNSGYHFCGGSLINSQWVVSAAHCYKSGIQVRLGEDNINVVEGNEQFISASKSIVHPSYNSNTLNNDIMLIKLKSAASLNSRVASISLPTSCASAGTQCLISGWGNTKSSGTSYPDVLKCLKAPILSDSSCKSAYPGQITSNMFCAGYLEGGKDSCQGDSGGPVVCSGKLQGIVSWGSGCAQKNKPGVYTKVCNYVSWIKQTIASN
# Method in brief: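 Peptides were preincubated for 5 min at 37 °C and then digested with 0.05 μg/μL trypsin solution (stock). Remaining intact peptide was quantified as RP-HPLC peak area.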
# [5] = test system: mouse ear swelling; experiment: Croton oil mouse ear swelling, IL-17A inhibitory peptide administered subcutaneously; type: in vivo; conditions: subcutaneous, peptides 30 mg/kg, Secukinumab 5 mg/kg
# Method: IL-17A is an inflammatory factor in many chronic inflammatory reactions. In order to quickly evaluate and analyze its anti-inflammatory effects, a mouse ear swelling model was first used for preliminary screening of anti-inflammatory activities. The experimental process is as follows. Kunming male mice (18-20 g, n=10) were labeled with picric acid. All mice in each group were coated with 10 μL croton oil on both sides of the right ear. Immediately after modeling, the positive drugs Secukinumab group (5 mg/kg), inhibitory peptides 17A, 17A-BT, 17A-CH, and 17A-EC (30 mg/kg) were subcutaneously injected. The model control group (Con) was injected with a corresponding volume of physiological saline. After causing inflammation for 4 hours, the mice in each group were killed for cervical dislocation, and then the ear pieces were punched in the symmetrical parts of the left and right ears with a hole punch. The weight was weighed and recorded. The swelling degree and swelling rate were calculated:
# Swelling rate=((right ear mass−left ear mass)/left ear mass)*100%
# [6] = test system: P407-induced hyperlipidemia mice; experiment: Subcutaneous injection of PCSK9 inhibitory peptide, serum total cholesterol in P407-induced hyperlipidemia mice; type: in vivo, mouse; conditions: for serum total cholesterol (TC) level after subcutaneous injection (in words): 2 μmol/kg single s.c., P407-induced hyperlipidemia mice
# Method in brief: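 ICR mice, fasted overnight, received intraperitoneal P407 at 500 mg/kg. After 24 h they received subcutaneous peptide at 2 μmol/kg in 20% PEG400; vehicle-treated and normal groups served as controls. Serum total cholesterol was measured at various times after dosing.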
# [7] = molecular target: T2, interaction of PCSK9-LDLR (Homo sapiens, UniProt Q8NBP7); experiment: PCSK9-LDLR in vitro binding assay (inhibitory rate); conditions: in vitro
# T2 construct: purchased MBL Company, Beijing, China CY-8150
# Method in brief: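 Polypeptide (final 50 μM) pre-incubated 20 min at room temperature with PCSK9 (final 75 ng/mL), then run in a PCSK9-LDLR binding kit read at OD450/540 nm. Inhibition rate calculated relative to a solvent control (water or DMSO) lacking polypeptide.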
# [8] = test system: P407 induced hyperlipidemia mice; experiment: Duodenal injection of PCSK9 inhibitory peptide, serum total cholesterol in P407 induced hyperlipidemia mice; type: in vivo, mouse
# Method: The experimental polypeptide sample was prepared using PEG400 with a final concentration of 20 μmol/kg and the final concentration of PEG400 is 50% (w/v). The control group was saline containing PEG400 (50%).
# Normal ICR mice were fasted overnight with water ad libitum. The next day, all of the mice were intraperitoneally injected with poloxamer 407 (P407, 500 mg/kg) to establish a model of lipid metabolism disorder. Six mice were intraperitoneally injected with saline as a normal control (Nor). Normal feeding resumed after 2 hours. The model animals were randomly divided into model group (Con) and polypeptide groups according to body weight, and the blood was collected from tail tip (0 min). Then, the animals were anesthetized with ether for duodenal exposure surgery. At the same time, a sample or saline containing PEG400 was injected through the duodenum. Finally, the wound was sutured. The blood was collected from tail tip at 15, 30, 60, and 90 minutes after administration to determine the serum total cholesterol level.
# [9] = isolated enzyme chymotrypsin, pH 7.8, Remaining peak area (%)/chymotrypsin
# [10] = isolated enzyme trypsin, pH 7.8
molecule,measurement,setting,value
CC[C@H](C)[C@@H]1NC(=O)[C@@H]2CCCN2C(=O)[C@@H]2CCCN2C(=O)[C@H]([C@@H](C)CC)NC(=O)[C@H](CO)NC(=O)[C@H](CCCCN)NC(=O)[C@H]([C@@H](C)O)NC(=O)[C@H](C)NC(=O)[C@H](CCCNC(=N)N)NC(=O)[C@H](C)NC(=O)[C@@H](NC(=O)CNC(=O)[C@@H]2CCCN2C(=O)[C@@H](NC(=O)CNC(=O)[C@H](CO)NC(=O)CNC(=O)[C@@H](NC(=O)[C@H](CC(N)=O)NC(=O)[C@@H](NC(=O)[C@H](CCCNC(=N)N)NC(=O)[C@@H]2CCCN2C(=O)[C@H](Cc2ccc(O)cc2)NC(=O)[C@@H](NC(=O)[C@H](CCC(N)=O)NC(=O)[C@H](CC(C)C)NC(=O)[C@H](CCCCN)NC(=O)[C@H](Cc2c[nH]cn2)NC(=O)[C@H](C)NC(=O)[C@H](CCC(=O)O)NC(=O)[C@H](CCC(N)=O)NC(=O)[C@H](CO)NC(=O)[C@H](CC(C)C)NC(=O)[C@H](CCCCN)NC(=O)CNC(=O)[C@H](CC(C)C)NC(=O)CNC(=O)[C@@H]2CSSC[C@H](N)C(=O)N[C@@H](CO)C(=O)N[C@@H](CC(N)=O)C(=O)N[C@@H](CC(C)C)C(=O)N[C@@H](CO)C(=O)N[C@@H]([C@@H](C)O)C(=O)N2)[C@@H](C)O)[C@@H](C)O)[C@@H](C)O)[C@@H](C)O)CSSC[C@@H](C(=O)N[C@@H](Cc2ccccc2)C(=O)O)NC1=O [Cal-BT],blood calcium concentration (in words),[1],did not effectively reduce the blood calcium concentration of rats within 24 h after administration
same,blood calcium concentration (in words),[1]; listed as Cal BT,did not effectively reduce the concentration of calcium ions in rats
same,stability towards chymotrypsin hydrolysis (in words),[2],high tolerance to chymotrypsin
same,Remaining peak area (%)/chymotrypsin,[2]; 0 h,100.0 ± 0.0%
same,"remaining at 0.025 h, 60 μM",[2]; [9],86.3 ± 9%
same,"remaining at 0.05 h, 60 μM",[2]; [9],83.9%
same,"remaining at 0.075 h, 60 μM",[2]; [9],73.1 ± 1.7%
same,"remaining at 0.1 h, 60 μM",[2]; [9],71.8 ± 1.1%
same,"remaining at 0.15 h, 60 μM",[2]; [9],70 ± 3%
same,"remaining at 0.25 h, 60 μM",[2]; [9],61.3%
same,"remaining at 0.5 h, 60 μM",[2]; [9],58.9 ± 2.3%
same,"remaining at 1 h, 60 μM",[2]; [9],46 ± 1.3%
same,Body weight (g) X ± SD End,[3],158.9 ± 3.2 g
same,Body weight (g) X ± SD Start,[3],176.1 ± 5.1 g
same,Changes of body weight (%),[3],−9.80%
same,stability towards trypsin hydrolysis (in words),[4],resistant to the corresponding protease degradation
same,Remaining peak area (%)/Trypsin,[4],100.0 ± 0.0%
same,"remaining at 0.025 h, 60 μM",[4]; [10],84.2 ± 5.6%
same,"remaining at 0.05 h, 60 μM",[4]; [10],87.8 ± 1%
same,"remaining at 0.075 h, 60 μM",[4]; [10],71.4 ± 0.9%
same,"remaining at 0.1 h, 60 μM",[4]; [10],74.3 ± 3.4%
same,"remaining at 0.15 h, 60 μM",[4]; [10],77.1 ± 8.4%
same,"remaining at 0.25 h, 60 μM",[4]; [10],69.4 ± 6.5%
same,"remaining at 0.5 h, 60 μM",[4]; [10],69.5 ± 6.6%
same,"remaining at 1 h, 60 μM",[4]; [10],68.2 ± 8.4%
CC(C)C[C@H](NC(=O)CNC(=O)[C@@H]1CSSC[C@H](N)C(=O)N[C@@H](CO)C(=O)N[C@@H](CC(N)=O)C(=O)N[C@@H](CC(C)C)C(=O)N[C@@H](CO)C(=O)N[C@@H]([C@@H](C)O)C(=O)N1)C(=O)NCC(=O)N[C@@H](CCCCN)C(=O)N[C@@H](CC(C)C)C(=O)N[C@@H](CO)C(=O)N[C@@H](CCC(N)=O)C(=O)N[C@@H](CCC(=O)O)C(=O)N[C@@H](C)C(=O)N[C@@H](Cc1c[nH]cn1)C(=O)N[C@@H](CCCCN)C(=O)N[C@@H](CC(C)C)C(=O)N[C@@H](CCC(N)=O)C(=O)N[C@H](C(=O)N[C@@H](Cc1ccc(O)cc1)C(=O)N1CCC[C@H]1C(=O)N[C@@H](CCCNC(=N)N)C(=O)N[C@H](C(=O)N[C@@H](CC(N)=O)C(=O)N[C@H](C(=O)NCC(=O)N[C@@H](CO)C(=O)NCC(=O)N[C@H](C(=O)N1CCC[C@H]1C(=O)O)[C@@H](C)O)[C@@H](C)O)[C@@H](C)O)[C@@H](C)O [CalM] (H-CSNLSTCGLGKLSQEAHKLQTYPRTNTGSGTP-OH; disulfide 1-7),"remaining at 1 h, 60 μM","[2]; isolated enzyme chymotrypsin, pH 7.8, prototype peptide remaining after chymotrypsin hydrolysis",~4.9%
same,Body weight (g) X ± SD End,[3],160.9 ± 4.7 g
same,Body weight (g) X ± SD Start,[3],180.2 ± 6.8 g
same,Changes of body weight (%),[3],−10.71%
same,stability towards trypsin hydrolysis (in words),[4],extremely unstable towards trypsin
same,Remaining peak area (%)/Trypsin,[4],100.0 ± 0.0%
same,"remaining at 0.025 h, 60 μM",[4]; [10],9 ± 2.3%
same,"remaining at 0.05 h, 60 μM",[4]; [10],0%
same,"remaining at 0.075 h, 60 μM",[4]; [10],0%
same,"remaining at 0.1 h, 60 μM",[4]; [10],0%
same,"remaining at 0.15 h, 60 μM",[4]; [10],0%
Secukinumab: positive drug in the subcutaneous ear swelling test; anti IL-17A antibody,Swelling (%),[5]; 4 hours after croton oil,72.54 ± 25.32 %
same,Swelling inhibitory (%),[5]; vs model control,37.36%
Trp-Glu-Glu-Tyr-Leu-Asp-Tyr-Val-Gly-Phe-Cys-Thr-Tyr-Ser-Ile-Pro-Pro-Gln-Cys-Tyr-Gly-Thr-Val-Phe-Thr-Ser (WEEYLDYVGFCTYSIPPQCYGTVFTS; disulfide 11-19 (inferred)) [PCSK9_6CH],serum total cholesterol (TC) level after subcutaneous injection (in words),[6],reduced serum TC level
same,serum total cholesterol (TC) level after subcutaneous injection (in words),[6]; listed as SEQ ID NO: 230,excellent lowering lipid (total cholesterol) activities in vivo
same,TC 15 min,"[6]; serum, subcutaneous 2 μmol/kg, 15 min after administration, mean ± sd",3201 ± 1389 µg/mL
same,TC 30 min,"[6]; serum, subcutaneous 2 μmol/kg, 30 min after administration, mean ± sd",3363 ± 865 µg/mL
same,TC 60 min,"[6]; serum, subcutaneous 2 μmol/kg, 60 min after administration, mean ± sd",2691 ± 979 µg/mL
same,TC 90 min,"[6]; serum, subcutaneous 2 μmol/kg, 90 min after administration, mean ± sd",2655 ± 954 µg/mL
same,inhibitory activity on the interaction between PCSK9 and LDLR (in words),[7],good inhibitory activity on the interaction between PCSK9 and LDLR
same,inhibitory activity on the interaction between PCSK9 and LDLR (in words),[7]; listed as SEQ ID NO: 230,good inhibitory effects in vitro
same,hypolipidemic activity after duodenal administration (in words),"[8]; 20 μmol/kg, P407 induced hyperlipidemia mice",did not show hypolipidemic activity
same,TC 15 min,"[8]; serum, duodenal injection 20 μmol/kg, 15 min, mean ± sd",2742 ± 651 µg/mL
same,TC 30 min,"[8]; serum, duodenal injection 20 μmol/kg, 30 min, mean ± sd",3071 ± 590 µg/mL
same,TC 60 min,"[8]; serum, duodenal injection 20 μmol/kg, 60 min, mean ± sd",3127 ± 567 µg/mL
same,TC 90 min,"[8]; serum, duodenal injection 20 μmol/kg, 90 min, mean ± sd",2986 ± 650 µg/mL
